In brackets after ≈: the same amount, converted by molar mass.
Tests used:
Pseudomonas = conditions: cited from earlier work
Pseudomonas aeruginosa = conditions: cited from earlier work
[1] = Aerosol particle size distribution (MMAD) in the dog study; assay type: physicochemical; conditions: aerosol of the combined formulation, analytical methods
[2] = tested on: Stenotrophomonas maltophilia; conditions: cited from earlier work
[3] = parameters: species or system beagle dogs; conditions: dog, in vivo
Description: Toxicokinetic parameters were estimated using WinNonlin pharmacokinetic software version 5.2.1 (Pharsight Corp.). A non-compartmental approach consistent with the extravascular route of administration was used for parameter estimation. All parameters were generated from individual amikacin and fosfomycin concentrations in plasma from Days 1 and 7.

MRSA = conditions: data from the 1980's; cited from earlier work
pseudomonas isolates = conditions: most pseudomonas isolates; cited from earlier work

| SMILES | MIC90 (Pseudomonas) | factor of increase of in vitro activity of amikacin by fosfomycin (Pseudomonas aeruginosa) | particle size distribution (MMAD) [1] | MIC90 [2] | accumulation following repeat dosing [3] | MIC90 (MRSA) | MIC90 (pseudomonas isolates) |
| --- | --- | --- | --- | --- | --- | --- | --- |
| NCC[C@H](O)C(=O)N[C@@H]1C[C@H](N)[C@@H](O[C@H]2O[C@H](CN)[C@@H](O)[C@H](O)[C@H]2O)[C@H](O)[C@H]1O[C@H]1O[C@H](CO)[C@@H](O)[C@H](N)[C@H]1O [amikacin] | 32 µg/mL (≈ 54.6 µM) | 64 | 2.80 μm | > 64 µg/mL | no clear indication of accumulation |  |  |
| C[C@@H]1O[C@@H]1P(=O)(O)O [fosfomycin] |  |  |  |  | no clear indication of accumulation | 32 µg/mL (≈ 232 µM) |  |
| NC[C@H]1O[C@H](O[C@H]2[C@H](O)[C@@H](O[C@H]3O[C@H](CO)[C@@H](O)[C@H](N)[C@H]3O)[C@H](N)C[C@@H]2N)[C@H](N)C[C@@H]1O [tobramycin] |  |  |  |  |  |  | 64 µg/mL (≈ 137 µM) |

— US10471083B2, “Formulations of aminoglycoside and fosfomycin in combination for treatment of ventilator associated pneumonia (VAP) and ventilator associated tracheal (VAT) bronchitis” (SAVARA INC., priority 2011, dated 2019)
